The values below come from publication PMC5472792, “Bub1 positions Mad1 close to KNL1 MELT repeats to promote checkpoint signalling” (Nature Communications, 2017).

Square brackets hold non-standard residues; d marks the D form. Peptide text beside a SMILES is read from it. * marks the point of attachment. Biotin = O=C1N[C@H]2[C@H](CS[C@H]2CCCCC(=O)*)N1; pT = C[C@@H](OP(=O)(O)O)[C@H](N)C(=O)O; Nle = CCCC[C@H](N)C(=O)O

The target of the test is T1, Mad1 597–718 Glu710Ala/Phe712Ala (Homo sapiens, UniProt Q9Y6D9, E710A/F712A).
T1 construct: His; Strep; made in house; host or cells: E. coli BL21(DE3) (stated for the wild-type construct)
T1 sequence (Q9Y6D9 597-718 E710A/F712A): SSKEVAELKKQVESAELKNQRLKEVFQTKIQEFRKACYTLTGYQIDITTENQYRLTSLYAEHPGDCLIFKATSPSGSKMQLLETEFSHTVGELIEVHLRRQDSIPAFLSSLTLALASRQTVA
As to the kind of experiment: SPR, binding of CD1 peptide to Mad1 597–718 Glu710Ala/Phe712Ala. The following applies: steady state, similar to Fig. 4. The text has this:
To investigate this, we first tested the role of these Mad1 residues in binding Bub1. We measured the ability of recombinant Mad1 (597–718) Glu710Ala/Phe712Ala to bind the CD1 peptide phosphorylated on Thr461. […] This argues that Mad1 has an important function in the checkpoint in addition to interacting with Mad2 and Bub1.
Figure 6 Residues in Mad1 are important for SAC function but not Bub1 binding. (a) SPR steady-state responses for pT461 Bub1 CD1 peptides to purified Mad1 597–718 Glu710Ala/Phe712Ala protein similar to Fig. 4. (b) Nocodazole arrested stable HeLa cell lines expressing Mad1-BirA or mutants were treated with biotin as indicated and biotinylated proteins were isolated. The samples were analysed for the presence of KNL1, Bub1 and BubR1 by western blot. Mad1-BirA (WT), Mad1(EFR/AAA)-BirA and Mad1 (RLK/AAA)-BirA. Representative of two independent experiments. […] Live cell imaging and quantification were performed as in Fig. 5a. […] The number of cells analysed per condition is indicated above. […]
Bub1 peptides were purchased from Biosyntan Gmbh (Germany). The purity obtained in the synthesis was 95–98% as determined by high-performance liquid chromatography (HPLC) and the identity of the peptides was confirmed by mass spectrometry. […] Sensorgrams were analysed after double referencing. […]
Background: Surface plasmon resonance follows binding to a sensor surface in real time, without labels.

With `CCCC[C@H](NC(=O)[C@H](CC(N)=O)NC(=O)[C@H](CCCC)NC(=O)[C@@H](NC(=O)[C@H](Cc1ccccc1)NC(=O)CNC(=O)[C@H](CC(C)C)NC(=O)[C@H](C)NC(=O)[C@H](CCC(=O)O)NC(=O)[C@H](CCCCN)NC(=O)[C@@H](NC(=O)[C@H](Cc1c[nH]cn1)NC(=O)[C@@H](NC(=O)[C@@H](NC(=O)[C@@H]1CCCN1C(=O)[C@H](CO)NC(=O)[C@@H]1CCCN1C(=O)[C@H](CCC(N)=O)NC(=O)[C@@H](NC(=O)[C@H](CCCCN)NC(=O)[C@H](CO)NC(=O)[C@@H]1CCCN1C(=O)[C@@H](NC(=O)[C@H](C)NC(=O)[C@H](CCC(N)=O)NC(=O)[C@@H](NC(=O)CCCC[C@@H]1SC[C@@H]2NC(=O)N[C@@H]21)C(C)C)[C@@H](C)O)C(C)C)[C@@H](C)OP(=O)(O)O)C(C)C)[C@@H](C)O)[C@@H](C)CC)C(=O)N[C@@H](Cc1ccccc1)C(=O)N[C@@H](CCC(N)=O)C(=O)N[C@@H](C)C(=O)N1CCC[C@H]1C(=O)N[C@H](C(=O)N[C@@H](CC(C)C)C(=O)N[C@@H](Cc1c[nH]c2ccccc12)C(=O)O)[C@@H](C)O` [CD1 pT461] (Biotin-VQATPSKVQPSP[pT]VHTKEALGFI[Nle]N[Nle]FQAPTLW-OH; C-terminus assumed), the KD result is on record as “the same affinity towards phosphorylated CD1 as wild type Mad1”.
